Results as given in US10857128B2, “Methods and compositions for treating inflammatory diseases” (Helmholtz Zentrum München Deutsches Forschungszentrum für …, priority 2017, dated 2020).

Key:
[1] = Oral supplementation of mice with D-tryptophan in drinking water: serum levels and tolerability; assay type: in vivo, Balb/c mice; settings: 14 days
Procedure: Enantiomeric separation of D-Tryptophan in murine sera. The investigator (C.M.) was blinded to the murine intervention groups. Due to the abundance of interfering proteins a protein precipitation was done. For this purpose the sera were thawed on ice and 20 μL of each sample were vigorously shaken with 80 μL 4° C. methanol (Chromasolve, Fluka, St. Louis, USA) and centrifuged (15,000×g at 4° C. for 15 min). The supernatants were taken, evaporated and resolved in water before injection. The derivation was performed as described for bacterial supernatants with some modifications as recently published (Müller et al., J Chromatogr A. 2014 Jan. 10; 1324:109-14). For quantification human serum was spiked with different concentrations (0.005-0.15 μg/mL) of D-Tryptophan and randomly analyzed.
Animals and oral supplementation with D-tryptophan. […]

[2] = system: allergic airway inflammation; assay: Ovalbumin-induced allergic airway inflammation (AAI) in mice with oral D-tryptophan; assay type: in vivo, Balb/c mice
Procedure: Isolation of intestinal lamina propria cells. Total colons were excised from mice, removed from mesenteries, opened longitudinally and cut into 2 cm long pieces that were incubated for 30 min in 30 mM EDTA in PBS on ice and then shaken vigorously with PBS to remove epithelial cells. After further cutting into small pieces with sharp scissors these were digested at 37° C. in RMPI supplemented with 1 mg/mL collagenase D (Roche Diagnostics, Mannheim, Germany) and 10 mg/ml DNAse I (Sigma-Aldrich, St. Louis, USA). Cells were separated by a 40/80% (w/v) Percoll (GE Healthcare, Chalfont St. Giles, UK) density centrifugation step and washed prior to staining for flow cytometry analysis.
Costimulatory molecules on human DCs. The following primary monoclonal antibodies were used: CD83 fluorescein isothiocyanate (FITC); CD1a phycoerythrin (PE); CD86-FITC; CD80-PE; CD14 allophycocyanine (APC); CD40-APC; CD3-peridinin chlorophyll protein (PerCP); HLA-DR-PerCP; mouse immunoglobulins G1 (IgG1) mouse immunoglobulins G1 (IgG1) κ were used as isotype controls using the corresponding fluorochromes (all purchased from BD Biosciences, Heidelberg, Germany). To account for donor dependent variability of DC surface markers, all data were normalized to the expression induced by LPS which was set to 100% after subtraction of background values (FACS Canto, FACS DIVA software, Version 5.0.3, BD Biosciences, Heidelberg, Germany). Murine DC subsets and CD4^+ T cells. Single cell suspensions of splenocytes were obtained by filtering spleens through a 70 μm strainer. Samples were stained with CD3-PB (1:200, Biolegend, San Diego, USA), CD4-APC-H7 (BD, 1:400), CD11c-APC-Cy7 (1:100), Mhc-II-Percp-Cy5 (1:100), CD11b-FITC (1:100), CD80-AF647, CD40-APC (1:100). For intracellular cytokines, total spleen cells were stimulated with anti-CD3 (4 μg/mL, BD Bioscience, Heidelberg, Germany) and anti-CD28 (30 ng/mL, BD Bioscience, Heidelberg, Germany) for 16 h. 1×10^6 of total lung cells were stimulated for 16 h with MACSiBead particles coated with anti-CD3 and anti-CD28 using the T cell activation/expansion kit (Miltenyi Biotec, Bergisch Gladbach, Germany) in TexMACS medium (Miltenyi Biotec) according to the manufactures recommendations. Prior to staining, cells were treated with monensin (0.7 μL/mL, BD Golgi Stop, BD Bioscience, Heidelberg, Germany) for 6 h at 37° C. and intracellularly stained for II-4-PE (1:100, eBioscience, Vienna, Austria according to the manufacturer's protocols. Intracellular staining for Foxp3 was performed by using the Foxp3/Transcription Factor Staining buffer set (eBiosciences, Vienna, Austria) according to the manufacturer's recommendations.
Assessment of cytokines by cytometric bead array. Levels of II4, II5 and II13 were analysed in BALF and cell culture supernatants using an enhanced cytometric bead array (eCBA, Fex Set Kits, BD Biosciences, Franklin Lakes, N.J., USA) according to the manufacturer's guidelines.
Murine regulatory T cells. Cells were preincubated with Fc-Block (BD Bioscience, Heidelberg, Germany) for 5 min and stained for 20 min with the following antibodies: FITC-conjugated anti-CD3, Alexa-Fluor700-conjugated anti-CD4 and APC-eFluor780-conjugated CD45.2. For intracellular staining, cells were fixed and permeabilized with a commercially available fixation/permeabilization buffer (eBioscience, Vienna, Austria). LIVE/DEAD fixable Aqua dead stain kit (Invitrogen, Carlsbad, USA) was used prior to fixation. Intracellular staining was performed with PerCP-Cy5.5-conjugated anti-Foxp3 and Helios. Gates were set on live CD45^+CD3^+CD4^+ T cells. All antibodies were from eBioscience (Vienna, Austria). Cells were analyzed with a flow cytometer (Fortessa and LSRII, BD Bioscience, Heidelberg, Germany) and analyzed with Flowjo software (Flowjo LLC, Ashland, USA).
Induction of allergic airway inflammation. […]

[3] = AAI mice, 50 mM in drinking water

Compound: N[C@H](Cc1c[nH]c2ccccc12)C(=O)O [D-tryptophan]
- changes in behavior or body weight ([1]; 1.8 or 18 mg/dL in drinking water, compared to controls): No changes
- D-tryptophan serum levels ([1]; oral 0.9 mg/day in drinking water): increased D-tryptophan serum levels significantly
- Helios+ Treg (lung) [2, 3]: significantly increased
- II-4 producing T cells (lung) [2, 3]: reduced
- Ifn-g-producing Th1 cells (lung) [2, 3]: not
- airway hyperreactivity to methacholine [2, 3]: improved
- eosinophils in BALF [2, 3]: reduction
- total Foxp3+ cells (lung) [2, 3]: remained unchanged
- total BALF cells ([2]; AAI mice, 50 mM in drinking water from 3 days before sensitization): lowered
- II-4 levels in BALF ([2]; AAI mice, 50 mM in drinking water, (trend)): reduced
- frequency of Foxp3+ T cells in the colon ([2]; supplemented AAI mice compared to non-supplemented AAI mice): locally increased
